The record followed here is ChEMBL document CHEMBL3856210, “Discovery of in vitro antitubercular agents through in silico ligand-based approaches” (Eur J Med Chem, 2016).

In brackets after ≈: the same amount, converted by molar mass.

A short description of data set [1]: Antitubercular activity against Mycobacterium tuberculosis H37Ra ATCC 25177 after 21 days by agar dilution method. It is filed as functional. To be noted: ATCC 25177, 504 h.
Data set [2] is described as follows: Drug level in human liver microsomes assessed as CYP450-mediated compound formation treated with (+/-)-1-(4-Chlorophenyl)-2-(1H-imidazol-1-yl)ethyl-4-(3,4-dichlorophenyl)piperazine-1-carboxylate at 50 uM after 60 mins in presence of NADPH by LC-MS analysis. In kind it is ADME.

As for `Cc1[nH]n(-c2ccc(F)cc2)c(=O)c1C(=O)c1ccc(Cl)cc1`, the MIC in data set [1] was 12.5 µg/mL (≈ 37.8 µM).
The same measure, in the same setting: under `Cc1[nH]n(-c2ccc(Cl)cc2)c(=O)c1C(=O)c1ccc(Cl)cc1` stands 6.25 µg/mL (≈ 18 µM).
Take `O=C(c1ccc(Cl)cc1)c1c(C(F)(F)F)[nH]n(-c2ccccc2)c1=O`: in data set [1], the minimal inhibitory concentration (MIC) is over 64 µg/mL.
Still for that read-out and setting: under `COCc1nn2c(=O)cc(CCc3c(C)n[nH]c3C)[nH]c2c1-c1ccc(Cl)cc1` stands 16 µg/mL (≈ 38.8 µM); under `CCCc1cc(=O)n2nc(C)c(-c3ccc(OC)c(OC)c3)c2[nH]1`, 64 µg/mL (≈ 195 µM); under `Cc1nn2c(=O)cc(Cc3ccsc3)[nH]c2c1-c1ccc(Cl)cc1`, 32 µg/mL (≈ 89.9 µM).
In turn, `Cc1cccc(-c2nn3c(=O)cc(CCc4c(C)n[nH]c4C)[nH]c3c2C)c1` displayed an MIC in data set [1] of 64 µg/mL (≈ 177 µM).
`CNCCC/C(=C1\C(=O)N(c2ccc(Cl)cc2)N=C1C)c1ccc(Cl)cc1` displayed a minimal inhibitory concentration (MIC) in data set [1] of 64 µg/mL (≈ 159 µM).
For the compound `CC1=NN(c2ccc(Cl)cc2)C(=O)/C1=C\N1CCNCC1C(=O)c1ccco1` (stereo not drawn), the MIC in data set [1] stood at 32 µg/mL (≈ 80.2 µM).
The compound `Cc1n[nH]c(C)c1CCc1cc(=O)n2nc(C)c(-c3ccc(Cl)cc3)c2[nH]1` returned a minimal inhibitory concentration (MIC) in data set [1] of 8 µg/mL (≈ 20.9 µM).
For `O=C(OC(c1ccc(Cl)cc1)C(O)n1ccnc1)N1CCN(c2ccc(Cl)c(Cl)c2)CC1` (stereo not drawn), the Drug metabolism result in data set [2] is recorded as “Metabolite_Detected”.
Regarding `Cc1c(-c2cccc(Cl)c2)nn2c(=O)cc(CCCN3CCOCC3)[nH]c12`, in data set [1], 32 µg/mL (≈ 82.7 µM) was the least that counted as inhibitory (MIC).
As for `COc1ccc(-c2cnn3c(=O)c4c([nH]c23)CCCC4)cc1OC`, in data set [1], inhibition of growth (MIC) required 32 µg/mL (≈ 98.4 µM).
In the case of `Fc1ccc([C@H](c2cn(Cc3ccccc3)nn2)n2ccnc2)cc1`, inhibition of growth in data set [1] (MIC) required 64 µg/mL (≈ 192 µM).
Consider `Cc1nn(-c2ccccc2)c(O)c1C(=O)c1ccc(Cl)cc1`, for which the MIC in data set [1] turned out to be 6.25 µg/mL (≈ 20 µM).
Turning to `Fc1ccc([C@H](c2cn(-c3ccccc3)nn2)n2ccnc2)cc1`, the minimum inhibitory concentration (MIC) in data set [1] is 32 µg/mL (≈ 100 µM).
`CC1=NN(c2ccc(Cl)cc2)C(=O)/C1=C\N(C)C` registered an MIC in data set [1] of over 64 µg/mL.
In data set [1], `CC1=NN(c2ccc(Cl)cc2)C(=O)/C1=C\N1CCN(c2ccccc2)CC1` had an MIC of 64 µg/mL (≈ 168 µM).
On to `CC1=NN(c2ccc(Cl)cc2)C(=O)/C1=C(/c1ccc(Cl)cc1)N1CCOCC1`, for which the MIC in data set [1] was 4 µg/mL (≈ 9.61 µM).
On the same count and under the same terms, under `CC(=O)N1CCN(/C=C2\C(=O)N(c3ccc(Cl)cc3)N=C2C)CC1` stands 64 µg/mL (≈ 185 µM); under `CC1=NN(c2ccc(Cl)cc2)C(=O)/C1=C(/c1ccc(Cl)cc1)N1CCSCC1`, 8 µg/mL (≈ 18.5 µM); under `CC1=NN(c2ccc(Cl)cc2)C(=O)/C1=C\N1CCN(CCO)CC1`, 64 µg/mL (≈ 183 µM).
Compound `CC1=NN(c2ccc(Cl)cc2)C(=O)/C1=C(/c1ccc(Cl)cc1)N1CCC(C)CC1` returned a minimum inhibitory concentration (MIC) in data set [1] of 64 µg/mL (≈ 149 µM).
In the case of `CC1=NN(c2ccccc2)C(=O)/C1=C(/c1ccc(Cl)cc1)N1CCN(C)CC1`, in data set [1], the MIC amounted to 8 µg/mL (≈ 20.3 µM).
`CC1=NN(c2ccccc2)C(=O)/C1=C(/c1ccc(Cl)cc1)N1CCOCC1` yielded an MIC in data set [1] of 16 µg/mL (≈ 41.9 µM).
For `CC1=NN(c2ccc(Cl)cc2)C(=O)/C1=C(/c1ccc(Cl)cc1)N1CCN(C)CC1`, the minimum inhibitory concentration (MIC) in data set [1] stood at 4 µg/mL (≈ 9.32 µM).
In data set [1], `CC1=NN(c2ccc(Cl)cc2)C(=O)/C1=C(/c1ccc(Cl)cc1)N1CCCCC1` gave a minimum inhibitory concentration (MIC) of over 64 µg/mL.
On to `CC1=NN(c2ccc(Cl)cc2)C(=O)/C1=C(/c1ccc(Cl)cc1)N(C)C`, for which it took 16 µg/mL (≈ 42.7 µM) to inhibit growth in data set [1] (MIC).
As to `CC1=NN(c2ccccc2)C(=O)/C1=C(/c1ccc(Cl)cc1)N1CCSCC1`, it took 8 µg/mL (≈ 20.1 µM) to inhibit growth in data set [1] (MIC).
The same measure, in the same setting: under `CC1=NN(c2ccccc2)C(=O)/C1=C(/c1ccc(Cl)cc1)N(C)C` stands 32 µg/mL (≈ 94.2 µM); under `CC1=NN(c2ccc(Cl)cc2)C(=O)/C1=C\Nc1ccccc1`, 64 µg/mL (≈ 205 µM).
In turn, `CC1=NN(c2ccc(Cl)cc2)C(=O)/C1=C\N1CCOCC1` showed a minimum inhibitory concentration (MIC) in data set [1] of 64 µg/mL (≈ 209 µM).
For the compound `CC1=NN(c2ccc(Cl)cc2)C(=O)/C1=C\N1CCN(C)CC1`, 64 µg/mL (≈ 201 µM) was the least that counted as inhibitory in data set [1] (MIC).
With `O=C(COc1ccccc1)OC(Cn1ccnc1)c1ccc(Cl)cc1` (racemic), the MIC in data set [1] came to 64 µg/mL (≈ 179 µM).
Same read-out and setting: under `O=C(OC(Cn1ccnc1)c1ccc(Cl)cc1)N1CCN(c2ccc([N+](=O)[O-])cc2)CC1` (racemic) stands 16 µg/mL (≈ 35.1 µM); under `O=C(OC(Cc1ccccc1)c1ccc(Cl)cc1)N1CCN(c2ccc(Cl)c(Cl)c2)CC1` (racemic), 64 µg/mL (≈ 131 µM).
The compound `O=C(OC(Cn1ccnc1)c1ccc(Cl)cc1)N1CCN(c2ccc(Cl)c(Cl)c2)CC1` (racemic) displayed an MIC in data set [1] of 4 µg/mL (≈ 8.34 µM).
As to `O=C(OC(Cn1cccc1)c1ccc(Cl)cc1)N1CCN(c2ccc(Cl)c(Cl)c2)CC1` (racemic), in data set [1], the lowest concentration to inhibit growth (MIC) was 64 µg/mL (≈ 134 µM).
